The data set is described as follows: Human HepG2 cell viability assay in 384 well format. Details: dose 125 nL, time 70.5 hour; concentration not given beside the values. The data set is classed as toxicity, cell-based. The conditions noted are these: HepG2 cells, read-out: Inhibition.

As for `COC(=O)c1cccc(S(=O)(=O)N2CSCC2C(=O)N(C)C2CC2)c1` (stereo not given), the cytotoxicity at 70.5 h was 12.1%.

Take `CC(=O)c1cccc(OCCCC(=O)N(C)Cc2cnc(C)s2)c1`: the cytotoxicity at 70.5 h was -6.22%.

Consider `O=C(NCc1ccc(F)cc1)NCC1(N2CCOCC2)CCSC1` (stereo not given), for which the cytotoxicity at 70.5 h turned out to be 7.3%.

Take `COCc1noc(C2(c3ccc(Cl)cc3)CCOCC2)n1`: the cytotoxicity at 70.5 h is -6.8%.

Turning to `C=C(C)CN1CCC(NC(=O)Nc2cc(C(N)=O)ccc2OC)CC1`, the cytotoxicity at 70.5 h is -2.27%.

As to `C=C(C)CN1CCC(NC(=O)NCCc2cccc(C(N)=O)c2)CC1`, the cytotoxicity at 70.5 h was -3.95%.

Turning to `CC(=O)c1cccc(OCCCC(=O)N(C)Cc2cscn2)c1`, the cytotoxicity at 70.5 h worked out at 7.32%.

With `CCNC(=O)CCC(=O)NC1(c2cccc(Br)c2)CC1`, the cytotoxicity at 70.5 h is -2.97%.

As to `Cc1ncccc1C(=O)NCc1ccccc1CN(C)Cc1ccco1`, the cytotoxicity at 70.5 h is -1.05%.

As to `Cc1ccsc1C(=O)Nc1ccc(N2CCC(O)CC2)c(C#N)c1`, the cytotoxicity at 70.5 h is -0.649%.

With `Cc1ccc(C(=O)Nc2ccc(N3CCC(O)CC3)c(C#N)c2)s1`, the cytotoxicity at 70.5 h was 29.7%.

As for `N#Cc1cc(NC(=O)c2cscn2)ccc1N1CCC(O)CC1`, the cytotoxicity at 70.5 h was -4.48%.

`N#Cc1cc(NC(=O)c2ccccn2)ccc1N1CCC(O)CC1`: the cytotoxicity at 70.5 h was -3.91%.

In the case of `COc1ccccc1OCC(=O)NS(=O)(=O)c1ccc(Cl)cc1F`, the cytotoxicity at 70.5 h was 13.3%.

On to `O=C(NCCc1nnc2n1CCC2)N(Cc1ccco1)C1CCCC1`, for which the cytotoxicity at 70.5 h was -6.25%.

In the case of `CC(=O)c1cccc(OCCCC(=O)N(C)Cc2cnn(C)c2)c1`, the cytotoxicity at 70.5 h came out at 9.09%.

Take `CCOCC(=O)NC1(c2cccc(Cl)c2)CC1`: the cytotoxicity at 70.5 h is -8.22%.

Take `COCCCC(=O)NC1(c2cccc(Br)c2)CC1`: the cytotoxicity at 70.5 h worked out at 8.13%.

Turning to `CCc1nc(CNc2cc(Cl)ccc2OCC2CCCO2)no1` (stereo not given), the cytotoxicity at 70.5 h was -8.62%.

On to `COc1cccc(OCC(=O)NS(=O)(=O)c2cc(F)ccc2F)c1`, for which the cytotoxicity at 70.5 h is -5.46%.

As to `CC(O)(CNC(=O)NCc1cccc(-n2cncn2)c1)c1ccco1` (stereo not given), the cytotoxicity at 70.5 h was 7.59%.

Turning to `COc1ccc(C(C)NC(=O)Nc2nnc(C)s2)cc1OC` (stereo not given), the cytotoxicity at 70.5 h came to 2.44%.

Take `CC(NC(=O)CCc1nc(C(C)(C)C)no1)c1nnc2n1CCC2` (stereo not given): the cytotoxicity at 70.5 h was -7.28%.

Regarding `O=C(NCCNC(=O)C1CC1)c1cnc(-c2ccccc2)nc1`, the cytotoxicity at 70.5 h was determined as 16.6%.

For `CCN(CC)CCNC(=O)c1cnc(-c2ccccc2)nc1`, the cytotoxicity at 70.5 h was -7.78%.

On to `OC1CCN(c2cnnc3ccccc23)CC1`, for which the cytotoxicity at 70.5 h was 30.5%.

Take `COCc1cccc(CNC(=O)CNc2ccccc2C(C)=O)c1`: the cytotoxicity at 70.5 h was found to be 1.21%.

As to `COCc1ccccc1CNC(=O)CNc1ccccc1C(C)=O`, the cytotoxicity at 70.5 h was 2.64%.

Turning to `CN(C(=O)C1(C#N)CCCCC1)c1nccs1`, the cytotoxicity at 70.5 h was -0.486%.

As for `CC(C)Oc1cccc(CNC(=O)N2CCC(N3CC=CC3)C2)c1` (stereo not given), the cytotoxicity at 70.5 h was 26.6%.

Consider `c1ccc(N(CCn2cncn2)CC2CC2)cc1`, for which the cytotoxicity at 70.5 h is -4.37%.

As for `NC(=O)C1CCCN1C(=O)c1cccc2c1OCO2` (stereo not given), the cytotoxicity at 70.5 h is -1.57%.

Consider `COCc1ccccc1CNC(=O)CNc1cccc(Cl)c1OC`, for which the cytotoxicity at 70.5 h was -2.8%.

On to `CC(C)Nc1cccc(CNC(=O)N2CCC(N3CC=CC3)C2)c1` (stereo not given), for which the cytotoxicity at 70.5 h came out at 30.6%.

On to `Cc1nc(CCNC(C)c2ccc3c(c2)OCCCO3)cs1` (stereo not given), for which the cytotoxicity at 70.5 h stood at 0.884%.

For the compound `Cc1ccccc1CN1CCCN(C(=O)c2ccn(C)c(=O)c2)CC1`, the cytotoxicity at 70.5 h is -1.43%.

For the compound `COC(=O)c1ccc(CNC(C)(C)c2ccccc2OC)o1`, the cytotoxicity at 70.5 h was -6.94%.

As for `Cc1nn(CCC#N)c(C)c1CCC(=O)N(C)Cc1ccc(F)cc1F`, the cytotoxicity at 70.5 h is -4.98%.

Take `CN(Cc1nc2ccsc2c(=O)[nH]1)CC1CCCCC1`: the cytotoxicity at 70.5 h is -6.1%.

As for `COCCn1cc(NC(=O)NCC2CCN(c3ccccc3)C2)cn1` (stereo not given), the cytotoxicity at 70.5 h is -3.34%.

Consider `Cc1nn(CCC#N)c(C)c1CCC(=O)N(C)Cc1ccsc1`, for which the cytotoxicity at 70.5 h is -8.77%.

For the compound `Cc1n[nH]c(C(=O)N2CCCC(C)CC2)c1Br` (stereo not given), the cytotoxicity at 70.5 h was -5.15%.

For the compound `CCC1CN(C(=O)c2[nH]nc(C)c2Br)CCO1` (stereo not given), the cytotoxicity at 70.5 h was -6.3%.

On to `Cc1ccccc1S(=O)(=O)NC(=O)C1(c2cccc(Cl)c2)CC1`, for which the cytotoxicity at 70.5 h is -5.62%.

Consider `CCOc1ncccc1C(=O)N1CC=C(c2ccc(O)cc2)CC1`, for which the cytotoxicity at 70.5 h was -6.39%.

Turning to `CN(C)c1ccc(CCCNC(=O)NCC(O)c2ccsc2)cc1` (stereo not given), the cytotoxicity at 70.5 h is -3.63%.

Turning to `CCc1nc(C2CCCN2c2ncc(Br)cn2)no1` (stereo not given), the cytotoxicity at 70.5 h is -6.32%.

For `COCCCn1ccc(NC(=O)NCCc2cccnc2)n1`, the cytotoxicity at 70.5 h was -6.28%.

With `CCn1nc(C)c(S(=O)(=O)Nc2cccc(C(=O)O)c2C)c1C`, the cytotoxicity at 70.5 h is -2.69%.

`Cc1noc(-c2ccnc(N3CCC(CN4CCOCC4)CC3)c2)n1`: the cytotoxicity at 70.5 h stood at 11%.

For `CS(=O)(=O)Cc1ccc(NC(=O)Cc2cccnc2)cc1F`, the cytotoxicity at 70.5 h is -4.71%.

As for `CN(C)C(=O)c1ccc(OC2CCCC2)cc1`, the cytotoxicity at 70.5 h is -7%.

As for `Cc1cccc(C(C)NCC2CCS(=O)(=O)CC2)c1` (stereo not given), the cytotoxicity at 70.5 h is -3.65%.

Turning to `CC(C)COC(C)C(=O)N1CCCCCC1` (stereo not given), the cytotoxicity at 70.5 h was -8.79%.

For `CC(C)COC(C)C(=O)N1CCCCC1` (stereo not given), the cytotoxicity at 70.5 h was -3.46%.

On to `c1cnn(CC2CN(CCCOc3ccc4c(c3)OCO4)CCO2)c1` (stereo not given), for which the cytotoxicity at 70.5 h was -8.43%.

With `COCCCn1ccc(NC(=O)NCCCNc2ccccc2)n1`, the cytotoxicity at 70.5 h is -3.49%.

With `CC(=O)Nc1cccc(C(C)NCC2CCS(=O)(=O)CC2)c1` (stereo not given), the cytotoxicity at 70.5 h is -3.86%.

Turning to `CC(NCC1CCS(=O)(=O)CC1)c1cccc(OC(F)F)c1` (stereo not given), the cytotoxicity at 70.5 h is -6.96%.

As for `CCN(CC)CCNC(=O)c1ccc(Cl)c(NS(C)(=O)=O)c1`, the cytotoxicity at 70.5 h worked out at 4.61%.

Regarding `CCOc1ncccc1CNS(=O)(=O)N1CCOCC1`, the cytotoxicity at 70.5 h was found to be 15.2%.

With `O=S(=O)(NCC1CCOC1)N1CCc2ccccc2C1` (stereo not given), the cytotoxicity at 70.5 h was -0.92%.

In the case of `O=C(NCCNc1cnccn1)c1scnc1Cl`, the cytotoxicity at 70.5 h is -8.29%.

For `CS(=O)(=O)c1ccc(NC(=O)CSC(F)(F)F)cn1`, the cytotoxicity at 70.5 h was determined as 20.8%.

With `Cc1noc(C)c1CNC(=O)C(C)Oc1ccccc1F` (stereo not given), the cytotoxicity at 70.5 h is -4.89%.

Consider `CNC(=O)NC(=O)CN1CCCN(CC(F)(F)F)CC1`, for which the cytotoxicity at 70.5 h is -7.82%.

As for `Cc1noc(OCc2ccc(C#N)cc2)n1`, the cytotoxicity at 70.5 h is -0.0296%.

`CC1(C)CN(C(=O)Nc2ccc(Cn3cccn3)cc2)CCO1`: the cytotoxicity at 70.5 h was -3.49%.

As for `Cc1noc(OCCOc2ccc(C#N)cc2)n1`, the cytotoxicity at 70.5 h turned out to be 5.31%.

`O=C(C[S+]([O-])Cc1cccc(C(F)(F)F)c1)NC1CCCC1` (stereo not given): the cytotoxicity at 70.5 h was -8.39%.

As for `O=C(C[S+]([O-])Cc1ccc(F)cc1Cl)NC1CCCC1` (stereo not given), the cytotoxicity at 70.5 h is -6.82%.

Turning to `COc1ccc(-c2ccc(C(=O)O)c(F)c2)c(F)c1`, the cytotoxicity at 70.5 h amounted to 27.5%.

For the compound `NS(=O)(=O)NCC1(c2ccccc2Br)CC1`, the cytotoxicity at 70.5 h is 0.0399%.

With `CCN(C)S(=O)(=O)NCC1(c2ccccc2Br)CC1`, the cytotoxicity at 70.5 h is 4.86%.

For the compound `CCc1cc(N2CCC(NC(=O)CCC3CCCO3)CC2)ncn1` (stereo not given), the cytotoxicity at 70.5 h worked out at 25.3%.

The record behind these values is ChEMBL document CHEMBL3507680, “University of Dundee, Gates Library screen for HepG2 cell viability”.
